Consider twelve compounds from patent US12129246B1, “Hydroquinazoline derivatives for the treatment of a disease or disorder” (Novartis AG, priority 2023, dated 2024).

The target of assay [1] is T1, human NPR1 (Homo sapiens, UniProt P16066).
T1 construct: host or cells: CHO-K1
T1 sequence (P16066 33-1061): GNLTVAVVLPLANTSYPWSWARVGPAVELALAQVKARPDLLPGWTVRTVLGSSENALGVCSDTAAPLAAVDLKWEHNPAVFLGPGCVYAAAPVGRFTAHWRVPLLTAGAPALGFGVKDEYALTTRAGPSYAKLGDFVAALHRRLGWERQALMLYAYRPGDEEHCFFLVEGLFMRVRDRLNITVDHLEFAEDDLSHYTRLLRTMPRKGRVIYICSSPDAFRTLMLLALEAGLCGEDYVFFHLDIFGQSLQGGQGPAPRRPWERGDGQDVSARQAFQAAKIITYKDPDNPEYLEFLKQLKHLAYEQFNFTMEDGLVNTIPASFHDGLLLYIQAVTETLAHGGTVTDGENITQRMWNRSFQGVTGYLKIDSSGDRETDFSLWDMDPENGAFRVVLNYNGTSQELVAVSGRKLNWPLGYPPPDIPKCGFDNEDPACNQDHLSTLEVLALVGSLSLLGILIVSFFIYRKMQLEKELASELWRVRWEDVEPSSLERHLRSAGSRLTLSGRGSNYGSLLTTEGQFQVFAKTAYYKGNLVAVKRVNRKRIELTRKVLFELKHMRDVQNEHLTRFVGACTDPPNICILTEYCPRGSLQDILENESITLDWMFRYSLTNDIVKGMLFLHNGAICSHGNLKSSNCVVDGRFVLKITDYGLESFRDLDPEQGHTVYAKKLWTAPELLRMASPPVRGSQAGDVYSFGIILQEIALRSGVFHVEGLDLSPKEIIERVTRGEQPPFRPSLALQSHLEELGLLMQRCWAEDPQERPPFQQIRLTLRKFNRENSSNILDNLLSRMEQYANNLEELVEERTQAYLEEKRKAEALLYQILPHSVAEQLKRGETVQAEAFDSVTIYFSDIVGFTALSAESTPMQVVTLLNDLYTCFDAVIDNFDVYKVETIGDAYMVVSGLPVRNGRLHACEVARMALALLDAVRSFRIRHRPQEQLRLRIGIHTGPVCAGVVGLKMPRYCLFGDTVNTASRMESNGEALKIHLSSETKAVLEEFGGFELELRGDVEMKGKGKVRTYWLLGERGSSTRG
The experiment in a line: Cellular cGMP production assay, human NPR1 expressing CHO-K1 cells (CisBio HTRF). Type of assay: cell-based. To be noted: for AC50: cGMP production, 30 min at 37° C., 12-point dose-response from 30 μM; for Human NPR1 Amax (% of ANP): maximum cGMP production as percentage of the maximum cGMP produced with ANP. The procedure, abridged: (§1)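 CHO-K1 cells expressing human or cynomolgus NPR1 treated with compound (12-point, 3-fold dilutions from 30 μM top) in PBS+0.1% BSA with 1 mM IBMX, 30 min at 37° C. After lysis, cGMP quantified by HTRF competition (cGMP-d2/anti-cGMP-cryptate, 1 h RT, 665 nm emission) against a calibrator standard curve.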
Background: Time-resolved FRET reads energy transfer from a long-lived donor to a nearby acceptor.

Assay [2] concerns the target monkey NPR1 (Macaca fascicularis, UniProt A0A7N9DBT9). The experiment in a line: Cellular cGMP production assay, monkey NPR1 expressing CHO-K1 cells (CisBio HTRF). Type of assay: cell-based. To be noted: for Monkey NPR1 Amax (% of ANP): maximum cGMP production as percentage of the maximum cGMP produced with ANP. The procedure, abridged:
as §1

Setting [3] is: cGMP production, monkey NPR1 CHO-K1 cells, 30 min at 37° C., 12-point dose-response from 30 μM, read-out: Monkey NPR1 AC50.

Read-outs that look alike come from different tables or passages of the source.

Chain of monkey NPR1 (A0A7N9DBT9 entry or part of it): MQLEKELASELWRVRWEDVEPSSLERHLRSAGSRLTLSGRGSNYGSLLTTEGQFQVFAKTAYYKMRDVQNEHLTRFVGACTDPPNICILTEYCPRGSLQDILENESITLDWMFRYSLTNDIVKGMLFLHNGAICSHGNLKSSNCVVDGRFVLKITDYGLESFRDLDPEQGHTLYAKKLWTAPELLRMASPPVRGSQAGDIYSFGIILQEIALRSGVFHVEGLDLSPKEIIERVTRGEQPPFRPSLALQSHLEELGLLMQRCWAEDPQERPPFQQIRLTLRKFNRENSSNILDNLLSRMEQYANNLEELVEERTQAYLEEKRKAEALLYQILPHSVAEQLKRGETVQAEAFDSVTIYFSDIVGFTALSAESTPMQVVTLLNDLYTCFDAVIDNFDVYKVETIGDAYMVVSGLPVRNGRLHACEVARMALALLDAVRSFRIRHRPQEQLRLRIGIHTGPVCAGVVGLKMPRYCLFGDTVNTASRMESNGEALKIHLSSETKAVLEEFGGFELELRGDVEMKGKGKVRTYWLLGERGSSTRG

For `CC[C@H]([C@H]1CC[C@H](C(=O)O)CC1)N(C)c1nc2c(c(N[C@@H](CN3C4CCCC3CC(O)C4)c3ccccc3)n1)C[C@H](c1ccccc1)CC2` (stereo partly drawn) [Compound 112, (1R,4r)-4-((1R)-1-(((6R)-4-(((1R)-2-((1R,5S)-3-hydroxy-9-azabicyclo[3.3.1]nonan-9-yl)-1-phenylethyl)amino)-6-phenyl-5,6,7,8-tetrahydroquinazolin-2-yl)(methyl)amino)propyl)cyclohexane-1-carboxylic acid], in assay [1], the AC50 is 427 nM and the “Human NPR1 Amax (% of ANP)” value is given as 90.394 % of ANP. This compound displayed an AC50 in assay [2] of 394 nM. Moreover, the “Monkey NPR1 Amax (% of ANP)” value in assay [2] (monkey NPR1 CHO-K1 cells) is on record as 97.009 % of ANP.

For `CC[C@@H](N(C)c1nc2c(c(N[C@@H](CN3C4CCCC3CC4)c3scnc3C)n1)C[C@H](c1cccc(F)c1)CC2)C12CC(C(=O)O)(C1)C2` [Compound 113, 3-((1R)-1-(((6R)-4-(((1S)-2-(8-azabicyclo[3.2.1]octan-8-yl)-1-(4-methylthiazol-5-yl)ethyl)amino)-6-(3-fluorophenyl)-5,6,7,8-tetrahydroquinazolin-2-yl)(methyl)amino)propyl)bicyclo[1.1.1]pentane-1-carboxylic acid], in assay [1], the activity was half-maximal at 438 nM (AC50) and the “Human NPR1 Amax (% of ANP)” value was 98.462 % of ANP. The compound also had a concentration at half-maximal activity (AC50) in assay [2] of 460 nM. In addition, in assay [2] (monkey NPR1 CHO-K1 cells), the “Monkey NPR1 Amax (% of ANP)” value is listed as 99.894 % of ANP.

On to `CC[C@@H](Nc1nc2c(c(N[C@@H](CN3CCCCC3)c3scnc3C)n1)C[C@H](c1ccccc1)CC2)[C@H]1CC[C@H](C(=O)O)CC1` [Compound 114, (1R,4r)-4-((R)-1-(((R)-4-(((S)-1-(4-methylthiazol-5-yl)-2-(piperidin-1-yl)ethyl)amino)-6-phenyl-5,6,7,8-tetrahydroquinazolin-2-yl)amino)propyl)cyclohexane-1-carboxylic acid], for which, in assay [1], the AC50 amounted to 449 nM and the “Human NPR1 Amax (% of ANP)” value is given as 108.428 % of ANP. Further, the AC50 in assay [2] (setting [3]) was found to be 296 nM. The “Monkey NPR1 Amax (% of ANP)” value in assay [2] (monkey NPR1 CHO-K1 cells) was 113.348 % of ANP.

Consider `CC[C@@H](Nc1nc2c(c(N[C@@H](CN3CCCC3)c3ccccc3)n1)C[C@@H](c1ccccc1)CC2)[C@H]1CC[C@H](C(=O)O)CC1` [Compound 115, (1R,4r)-4-((R)-1-(((S)-6-phenyl-4-(((R)-1-phenyl-2-(pyrrolidin-1-yl)ethyl)amino)-5,6,7,8-tetrahydroquinazolin-2-yl)amino)propyl)cyclohexane-1-carboxylic acid], for which, in assay [1], the AC50 was 474 nM and the “Human NPR1 Amax (% of ANP)” value was 111.049 % of ANP. Further, the AC50 in assay [2] (setting [3]) was 387 nM. Moreover, the “Monkey NPR1 Amax (% of ANP)” value in assay [2] (monkey NPR1 CHO-K1 cells) was 106.285 % of ANP.

As for `CC[C@H]([C@H]1CC[C@H](C(=O)O)CC1)N(C)c1nc2c(c(N[C@@H](CN3CCCCC3)c3cnn(CC)c3)n1)C[C@@H](c1cccc(F)c1)CC2` [Compound 116, (1R,4r)-4-((R)-1-(((S)-4-(((R)-1-(1-ethyl-1H-pyrazol-4-yl)-2-(piperidin-1-yl)ethyl)amino)-6-(3-fluorophenyl)-5,6,7,8-tetrahydroquinazolin-2-yl)(methyl)amino)propyl)cyclohexane-1-carboxylic acid], in assay [1], the AC50 came to 477 nM and the “Human NPR1 Amax (% of ANP)” value is recorded as 95.817 % of ANP. Further, in assay [2] (setting [3]), the AC50 worked out at 471 nM. Further, in assay [2] (monkey NPR1 CHO-K1 cells), the “Monkey NPR1 Amax (% of ANP)” value is 104.029 % of ANP.

Regarding `CC[C@@H](Nc1nc2c(c(N[C@@H](CN3C4CCCC3CC(O)C4)c3cnn(CC)c3)n1)C[C@H](c1cccc(F)c1)CC2)[C@H]1CC[C@H](C(=O)O)CC1` (stereo partly drawn) [Compound 117, (1R,4r)-4-((1R)-1-(((6R)-4-(((1R)-1-(1-ethyl-1H-pyrazol-4-yl)-2-((1R,5S)-3-hydroxy-9-azabicyclo[3.3.1]nonan-9-yl)ethyl)amino)-6-(3-fluorophenyl)-5,6,7,8-tetrahydroquinazolin-2-yl)amino)propyl)cyclohexane-1-carboxylic acid], the AC50 was 524 nM in assay [1] and 500 nM in assay [2]. Also, the “Human NPR1 Amax (% of ANP)” value in assay [1] is given as 100.635 % of ANP. Also, the “Monkey NPR1 Amax (% of ANP)” value in assay [2] (monkey NPR1 CHO-K1 cells) is reported as 109.499 % of ANP.

For `CC[C@H]([C@H]1CC[C@H](C(=O)O)CC1)N(C)c1nc2c(c(N[C@@H](CN3CCCCC3)c3cnn(C)c3)n1)C[C@H](c1ccccc1)CC2` [Compound 118, (1R,4r)-4-((R)-1-(methyl((R)-4-(((R)-1-(1-methyl-1H-pyrazol-4-yl)-2-(piperidin-1-yl)ethyl)amino)-6-phenyl-5,6,7,8-tetrahydroquinazolin-2-yl)amino)propyl)cyclohexane-1-carboxylic acid], the half-maximal activity concentration (AC50) was 540 nM in assay [1] and 400 nM in assay [2] (setting [3]). For the same compound, in assay [1], the “Human NPR1 Amax (% of ANP)” value is 94.446 % of ANP. Also, the “Monkey NPR1 Amax (% of ANP)” value in assay [2] (monkey NPR1 CHO-K1 cells) is reported as 99.466 % of ANP.

Consider `CC[C@@H](Nc1nc2c(c(N[C@@H](CN3CCCCC3)c3cnc(C)s3)n1)C[C@H](c1ccccc1)CC2)[C@H]1CC[C@H](C(=O)O)CC1` [Compound 119, (1R,4r)-4-((R)-1-(((R)-4-(((S)-1-(2-methylthiazol-5-yl)-2-(piperidin-1-yl)ethyl)amino)-6-phenyl-5,6,7,8-tetrahydroquinazolin-2-yl)amino)propyl)cyclohexane-1-carboxylic acid], for which, in assay [1], the half-maximal activity concentration (AC50) was 542 nM and the “Human NPR1 Amax (% of ANP)” value was 89.681 % of ANP. For the same compound, the half-maximal activity concentration (AC50) in assay [2] (setting [3]) is 378 nM. Besides, the “Monkey NPR1 Amax (% of ANP)” value in assay [2] (monkey NPR1 CHO-K1 cells) is recorded as 90.965 % of ANP.

Turning to `C[C@H]1CCCN(C[C@H](Nc2nc(N(C)[C@H](C3CC3)[C@H]3CC[C@H](C(=O)O)CC3)nc3c2C[C@H](c2ccccc2)CC3)c2cnn(C)c2)C1` [Compound 120, (1R,4r)-4-((R)-cyclopropyl(methyl((R)-4-(((R)-1-(1-methyl-1H-pyrazol-4-yl)-2-((S)-3-methylpiperidin-1-yl)ethyl)amino)-6-phenyl-5,6,7,8-tetrahydroquinazolin-2-yl)amino)methyl)cyclohexane-1-carboxylic acid], in assay [1], the AC50 turned out to be 553 nM and the “Human NPR1 Amax (% of ANP)” value is on record as 96.905 % of ANP. Further, the AC50 in assay [2] (setting [3]) came to 427 nM. Also, the “Monkey NPR1 Amax (% of ANP)” value in assay [2] (monkey NPR1 CHO-K1 cells) is listed as 102.755 % of ANP.

For the compound `CC[C@@H](Nc1nc2c(c(N[C@@H](CN3CCC(C)CC3)c3cnn(C)c3)n1)C[C@H](c1ccccc1)CC2)[C@H]1CC[C@H](C(=O)O)CC1` [Compound 121, (1R,4r)-4-((R)-1-(((R)-4-(((R)-1-(1-methyl-1H-pyrazol-4-yl)-2-(4-methylpiperidin-1-yl)ethyl)amino)-6-phenyl-5,6,7,8-tetrahydroquinazolin-2-yl)amino)propyl)cyclohexane-1-carboxylic acid], in assay [1], half-maximal activity (AC50) was put at 570 nM and the “Human NPR1 Amax (% of ANP)” value was 100.330 % of ANP. Besides, the half-maximal activity concentration (AC50) in assay [2] (setting [3]) is 382 nM. Further, in assay [2] (monkey NPR1 CHO-K1 cells), the “Monkey NPR1 Amax (% of ANP)” value is given as 102.117 % of ANP.

`CC[C@@H](Nc1nc2c(c(N[C@@H](CN3C[C@H]4CC[C@@H]3C4)c3cnn(CC)c3)n1)C[C@H](c1ccccc1)CC2)[C@H]1CC[C@H](C(=O)O)CC1` [Compound 122, (1R,4r)-4-((R)-1-(((R)-4-(((R)-2-((1R,4S)-2-azabicyclo[2.2.1]heptan-2-yl)-1-(1-ethyl-1H-pyrazol-4-yl)ethyl)amino)-6-phenyl-5,6,7,8-tetrahydroquinazolin-2-yl)amino)propyl)cyclohexane-1-carboxylic acid]: the results for the half-maximal activity concentration (AC50) in assay [1] and in assay [2] (setting [3]) were 574 nM and 411 nM, respectively. For the same compound, the “Human NPR1 Amax (% of ANP)” value in assay [1] is reported as 102.209 % of ANP. In assay [2] (monkey NPR1 CHO-K1 cells), the “Monkey NPR1 Amax (% of ANP)” value is recorded as 99.605 % of ANP.

Turning to `CC[C@@H](Nc1nc2c(c(N[C@@H](CN3CCCC[C@@H]3C)c3cnn(C)c3)n1)C[C@H](c1ccccc1)CC2)[C@H]1CC[C@H](C(=O)O)CC1` [Compound 123, (1R,4r)-4-((R)-1-(((R)-4-(((R)-1-(1-methyl-1H-pyrazol-4-yl)-2-((S)-2-methylpiperidin-1-yl)ethyl)amino)-6-phenyl-5,6,7,8-tetrahydroquinazolin-2-yl)amino)propyl)cyclohexane-1-carboxylic acid], the AC50 in assay [1] stood at 592 nM; in assay [2] (setting [3]), 377 nM. Moreover, the “Human NPR1 Amax (% of ANP)” value in assay [1] was 103.006 % of ANP. Further, in assay [2] (monkey NPR1 CHO-K1 cells), the “Monkey NPR1 Amax (% of ANP)” value is reported as 102.761 % of ANP.

The AC50 is the concentration at which the activity in the assay is half-maximal.
